Measured values from patent publication US12264134B2 (Merck Sharp & Dohme LLC, priority 2018, dated 2025).

biological target: IDO1 (Homo sapiens, UniProt P14902); experiment: IDO1 Cellular Assay in HeLa Cells Stimulated with IFNγ; assay type: cell-based; details: read-out: HeLa Cell Potency, IC50
Sequence (P14902 whole entry): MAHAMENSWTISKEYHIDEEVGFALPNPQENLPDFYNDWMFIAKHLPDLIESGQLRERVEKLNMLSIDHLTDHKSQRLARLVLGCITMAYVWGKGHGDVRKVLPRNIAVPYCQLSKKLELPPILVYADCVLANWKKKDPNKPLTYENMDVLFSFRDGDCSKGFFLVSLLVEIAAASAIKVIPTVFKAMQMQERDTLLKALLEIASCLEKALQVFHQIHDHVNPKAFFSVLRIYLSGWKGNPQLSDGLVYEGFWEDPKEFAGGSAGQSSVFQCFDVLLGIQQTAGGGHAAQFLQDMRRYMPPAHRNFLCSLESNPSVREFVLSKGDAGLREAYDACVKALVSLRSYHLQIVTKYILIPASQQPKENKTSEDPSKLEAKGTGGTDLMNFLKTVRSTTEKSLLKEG

Row | Structure (SMILES) | IC50
1 | CC(=O)NC1CCCN(C(=O)c2nn(CC(=O)N3CCN(c4cccc(C)c4C)CC3)c3c2CCC3)C1 (stereo not shown) [Example 185, N-[1-(1-{2-[4-(2,3-dimethylphenyl)piperazin-1-yl]-2-oxoethyl}-1,4,5,6-tetrahydrocyclopenta[c]pyrazole-3-carbonyl)piperidin-3-yl]acetamide] | 120 nM
2 | Cc1c(C(F)F)cccc1N1CCN(C(=O)Cn2nc(C(=O)N3CCN(C(=O)CO)CC3)c3c2C[C@H]2C[C@@H]32)CC1 [Example 344, 1-(4-(3-(difluoromethyl)-2-methylphenyl)piperazin-1-yl)-2-((3bR,4aR)-3-(4-(2-hydroxyacetyl)piperazine-1-carbonyl)-3b,4,4a,5-tetrahydro-1H-cyclopropa[3,4]cyclopenta[1,2-c]pyrazol-1-yl)ethanone] | 6.52 nM
3 | C[C@@H]1CN(C(=O)c2nn(CC(=O)N3CCN(c4cccc5c4CCC5)CC3)c3c2CCC3)C[C@H](C)O1 [Example 80, 1-[4-(2,3-dihydro-1H-inden-4-yl)piperazin-1-yl]-2-{3-[(2R,6S)-2,6-dimethylmorpholine-4-carbonyl]-5,6-dihydrocyclopenta[c]pyrazol-1(4H)-yl}ethan-1-one] | 6.68 nM
4 | Cc1cccc(N2CCN(C(=O)Cn3nc(C(=O)N4CCC(CN)CC4)c4c3CCC4)CC2)c1C [Example 180, 2-{3-[4-(aminomethyl)piperidine-1-carbonyl]-5,6-dihydrocyclopenta[c]pyrazol-1(4H)-yl}-1-[4-(2,3-dimethylphenyl)piperazin-1-yl]ethan-1-one] | 11.6 nM
5 | Cc1c(C(F)F)cccc1N1CCN(C(=O)Cn2nc(C(=O)N3CC[C@@H](O)[C@@H](F)C3)c3c2C[C@H]2C[C@@H]32)CC1 [Example 347, 1-(4-(3-(difluoromethyl)-2-methylphenyl)piperazin-1-yl)-2-((3bR,4aR)-3-((3S,4R)-3-fluoro-4-hydroxypiperidine-1-carbonyl)-3b,4,4a,5-tetrahydro-1H-cyclopropa[3,4]cyclopenta[1,2-c]pyrazol-1-yl)ethanone] | 2.73 nM
6 | Cc1cccc(N2CCN(C(=O)Cn3nc(C(=O)N4CCN(C(C)C)CC4)c4c3CCC4)CC2)c1C [Example 159, 1-[4-(2,3-dimethylphenyl)piperazin-1-yl]-2-{3-[4-(propan-2-yl)piperazine-1-carbonyl]-5,6-dihydrocyclopenta[c]pyrazol-1(4H)-yl}ethan-1-one] | 25.2 nM
7 | Cc1cccc(N2CCN(C(=O)Cn3nc(C(=O)N4CCN(C(=O)CO)CC4)c4c3CCC4)CC2)c1C [Example 85, 1-[4-(2,3-dimethylphenyl)piperazin-1-yl]-2-{3-[4-(hydroxyacetyl)piperazine-1-carbonyl]-5,6-dihydrocyclopenta[c]pyrazol-1(4H)-yl}ethan-1-one] | 26.5 nM
8 | Cc1cccc(N2CCN(C(=O)Cn3nc(C(=O)N4CC5CCC4CC5O)c4c3CCC4)CC2)c1C (stereo not shown) [Example 151, 1-[4-(2,3-dimethylphenyl)piperazin-1-yl]-2-[3-(5-hydroxy-2-azabicyclo[2.2.2]octane-2-carbonyl)-5,6-dihydrocyclopenta[c]pyrazol-1(4H)-yl]ethan-1-one] | 4.63 nM
9 | Cc1cccc(N2CCN(C(=O)Cn3nc(C(=O)N4CC5CCC(F)(F)C5C4)c4c3CCC4)CC2)c1C (stereo not shown) [Example 153, 2-[3-(4,4-difluorohexahydrocyclopenta[c]pyrrole-2(1H)-carbonyl)-5,6-dihydrocyclopenta[c]pyrazol-1(4H)-yl]-1-[4-(2,3-dimethylphenyl)piperazin-1-yl]ethan-1-one] | 3.19 nM
10 | Cc1cccc(N2CCN(C(=O)Cn3nc(C(=O)N4C[C@@H](C)N[C@@H](C)C4)c4c3CCC4)CC2)c1C [Example 197, 1-[4-(2,3-dimethylphenyl)piperazin-1-yl]-2-{3-[(3R,5S)-3,5-dimethylpiperazine-1-carbonyl]-5,6-dihydrocyclopenta[c]pyrazol-1(4H)-yl}ethan-1-one] | 11.4 nM
